Test results as given in PMC6114901, “An automated screening method for detecting compounds with goitrogenic activity using transgenic zebrafish embryos” (PLoS ONE, 2018).
Like-named read-outs stand apart in the source and are kept apart here.

Legend:
[1] = test system: thyroglobulin (tg:mCherry reporter gene); test: animal or person; conditions: for EC50: read-out: EC50 (tg:mCherry induction)
Protocol: In order to avoid interference of test chemicals with early thyroid gland development, zebrafish embryos were cultured in exposure medium until 48 hours post fertilization (hpf). Subsequently, they were exposed to seven known thyroid endocrine disrupters for 3 days (48 to 120 hpf). The non-goitrogenic compound 3,4-dichloroaniline, that is used as reference compound in the zebrafish acute embryo toxicity test was used as negative control. […] No solvents were used. […] Five concentrations and one control were tested per compound and replicate. In the second replicate the range of concentration was adjusted to improve fitting of concentration-response curves. […] Given the lack of appropriate spectral properties stability of exposure concentrations was not analysed for potassium perchlorate. Embryos were kept in the incubator at 26°C and a 14:10 hours light:dark cycle. The exposure was conducted in crystallisation dishes covered with watchmaker glasses with 30 embryos in 30 ml exposure medium (for exposure medium refer to [26]).
Embryos were positioned ventrally toward the microscope objective. Per embryo a bright field image, an autofocus fluorescence image and a Z-stack of 9 images were obtained. The Z-stack was required in case of autofocus failure and manual selection of the focal plane. Fluorescence images were obtained with 400 ms of fluorescent light exposure at maximal light intensity and a gain of 1. […] However, care was taken, that at least 10 images per concentration and replicates were assessed. To avoid a time bias during the analysis the sequence of wells for analysis was arranged in order to obtain a uniform distribution over the entire period of analysis.
The images were analysed using a KNIME workflow (Version 3.3.3., [29]) with the extension “KNIME image processing”. In brief, images were loaded into the workflow and the background was removed automatically using the “rolling ball” procedure of the image J plugin (rolling ball size set to 50 pixels). Subsequently the area containing the thyroid gland was manually selected by drawing a rectangle around the appropriate region using the interactive annotation node. […] If possible the autofocus images were used. In case that the thyroid gland was out of focus due to the presence of autofluorescing pigment cells, an appropriate image from the Z-stack was selected. All subsequent steps were conducted without any user interaction. […] Finally the sum of pixel (reflecting area of the thyroid gland and intensity of fluorescence) was calculated for the labeled area and used as a proxy of fluorescence intensity (see Fig 1 for an overview of the workflow). For each replicate the sum was of pixels was normalized by setting controls to the value of one. For data of individual embryos see S4 Table. The KNIME workflow used for image analysis is provided as supplement file (S1 Workflow).
To characterize the potency of the investigated goitrogenic compounds, we calculated EC50 values of tg:mcherry fluorescence using the pixel sum obtained from image analysis. For each replicate the fluorescence intensity was normalized by dividing the mean fluorescence intensity of each concentration with the mean control fluorescence intensity. Concentration-response curves of tgmcherry fluorescence were fitted to the data using the Hill-slope equation (Eq 1) and used to estimate EC50 values.
The parameter Min was set to 1 and the slope (p) and the maximum fluorescence (Max) were estimated.

[2] = ref chemspider (http://www.chemspider.com); cited from earlier work
[3] = test system: thyroid hormone levels (T4); conditions: cited from earlier work; for EC50: read-out: EC50 T4 reduction
[4] = test system: zebrafish embryos; test: in vivo; conditions: for Slope: mortality concentration-response curve
Protocol: Fish embryo acute toxicity tests were performed similar as described previously, using 10 or 25 embryos per concentration and replicate exposed in crystallization dishes from 48 to 120 hpf. No exchange of exposure media was performed. Lethality was identified by coagulation, missing heartbeat, a non–detached tail and/or missing of somites. Raw data for mortality and phenotypic assessment are provided as S1 Table. Concentration-response curves for mortality are shown in S2 Fig.

[5] = reduction of thyroid hormone levels (immunostaining), ref Thienpont et al. [13]
[6] = 72 hpf, 17777.78 µmol/L, replicate 2, 10 embryos
[7] = 72 hpf, 26666.67 µmol/L, replicate 2, 10 embryos
[8] = 72 hpf, 40000.00 µmol/L, replicate 2, 10 embryos
[9] = 72 hpf, 60000.00 µmol/L, replicate 2, 10 embryos
[10] = 72 hpf, 90000.00 µmol/L, replicate 2, 10 embryos
[11] = 96 hpf, 17777.78 µmol/L, replicate 2, 10 embryos
[12] = 96 hpf, 26666.67 µmol/L, replicate 2, 10 embryos
[13] = 96 hpf, 40000.00 µmol/L, replicate 2, 10 embryos
[14] = 96 hpf, 60000.00 µmol/L, replicate 2, 10 embryos
[15] = 96 hpf, 90000.00 µmol/L, replicate 2, 10 embryos
[16] = 120 hpf, 5625.00 µmol/L, replicate 1, 25 embryos
[17] = 120 hpf, 11250.00 µmol/L, replicate 1, 25 embryos
[18] = 120 hpf, 17777.78 µmol/L, replicate 2, 10 embryos
[19] = 120 hpf, 22500.00 µmol/L, replicate 1, 25 embryos
[20] = 120 hpf, 26666.67 µmol/L, replicate 2, 10 embryos
[21] = 120 hpf, 40000.00 µmol/L, replicate 2, 10 embryos
[22] = 120 hpf, 45000.00 µmol/L, replicate 1, 25 embryos
[23] = 120 hpf, 60000.00 µmol/L, replicate 2, 10 embryos
[24] = 120 hpf, 90000.00 µmol/L, replicate 1, 25 embryos
[25] = 120 hpf, 90000.00 µmol/L, replicate 2, 10 embryos

S=C1NCCN1 [Ethylenethiourea, N, N’-ethylenethiourea]
EC50 ([1]; Danio rerio): 366 µM | BMD 20 ([1]; zebrafish, in vivo): 246 µM | Slope ([1]; zebrafish, in vivo): 3.8 | Log D (pH 7.4) [2]: -0.52 | EC50 [3, 5]: 135 µM

Oc1cc(O)cc(O)c1 [Phloroglucinol, phloroglucinol]
EC50 ([1]; Danio rerio): 1100 µM | BMD 20 ([1]; zebrafish, in vivo): 252 µM | Slope ([1]; zebrafish, in vivo): 0.89 | Log D (pH 7.4) [2]: 0.24 | EC50 [3, 5]: 2700 µM | TDI (T4) ([3]; thyroid disruption index based on T4 reduction, ref Thienpont et al. [13]): 32

CCCc1cc(=O)[nH]c(=S)[nH]1 [Propylthiouracil, 6-propyl-2-thiouracil]
EC50 ([1]; Danio rerio): 334 µM | BMD 20 ([1]; zebrafish, in vivo): 163 µM | Slope ([1]; zebrafish, in vivo): 1.7 | EC50 ([3]; zebrafish, in vivo): 137 µM | TDI (T4) ([3]; zebrafish, in vivo): 20

c1cn[nH]c1 [Pyrazole, pyrazole]
EC50 ([1]; zebrafish, in vivo): 637 µM | BMD 20 ([1]; zebrafish, in vivo): 399 µM | Slope ([1]; zebrafish, in vivo): 5.7 | TDI ([1]; zebrafish, in vivo): 67 | No Surviving [4, 6]: 10 | No hatched [4, 6]: 0 | No Surviving [4, 7]: 10 | No hatched [4, 7]: 0 | No Surviving [4, 8]: 10 | No hatched [4, 8]: 0 | Total Sublethal [4, 8]: 3 | nobc (no blood circulation) [4, 8]: 3 | No Surviving [4, 9]: 0 | No hatched [4, 9]: 0 | nohb (no heartbeat) [4, 9]: 10 | No Surviving [4, 10]: 0 | No hatched [4, 10]: 0 | nohb (no heartbeat) [4, 10]: 10 | No Surviving [4, 11]: 10 | No hatched [4, 11]: 10 | No Surviving [4, 12]: 10 | No hatched [4, 12]: 8 | No Surviving [4, 13]: 10 | No hatched [4, 13]: 9 | Total Sublethal [4, 13]: 10 | nomov (no spontaneous movement) [4, 13]: 10 | No Surviving [4, 14]: 0 | No hatched [4, 14]: 0 | k/f (coagulated) [4, 14]: 5 | nohb (no heartbeat) [4, 14]: 5 | No Surviving [4, 15]: 0 | No hatched [4, 15]: 0 | k/f (coagulated) [4, 15]: 10 | No Surviving [4, 16]: 25 | Sublethal effects Total Sublethal [4, 16]: 1 | No Surviving [4, 17]: 25 | Sublethal effects Total Sublethal [4, 17]: 1 | No Surviving [4, 18]: 10 | No hatched [4, 18]: 10 | Lethal effects k/f [4, 19]: 2 | No Surviving [4, 19]: 23 | Sublethal effects Total Sublethal [4, 19]: 12 | No Surviving [4, 20]: 10 | No hatched [4, 20]: 9 | Sublethal effects Total Sublethal [4, 20]: 4 | Sublethal effects mch [4, 20]: 1 | Sublethal effects nomov [4, 20]: 4 | No Surviving [4, 21]: 10 | No hatched [4, 21]: 9 | Sublethal effects EdY / EdP [4, 21]: 9 | Sublethal effects Total Sublethal [4, 21]: 10 | Sublethal effects nobc [4, 21]: 4 | Sublethal effects nomov [4, 21]: 8 | Lethal effects k/f [4, 22]: 25 | No Surviving [4, 22]: 0 | Lethal effects k/f [4, 23]: 10 | No Surviving [4, 23]: 0 | No hatched [4, 23]: 0 | Lethal effects k/f [4, 24]: 25 | No Surviving [4, 24]: 0 | Lethal effects k/f [4, 25]: 10 | No Surviving [4, 25]: 0 | No hatched [4, 25]: 0 | LC50 ([4]; mortality after 24 h of exposure, S2 Fig, unit inferred): 49000 µM | LC50 ([4]; mortality after 48 h of exposure, S2 Fig, unit inferred): 49000 µM | Slope ([4]; 24 h of exposure): 56.2 | Slope ([4]; 48 h of exposure): 56.2 | Slope ([4]; 72 h of exposure): 132 | LC50 ([4]; read-out: LC50 (48–120 hpf), mortality, embryos exposed 48–120 hpf): 42400 µM | Log D (pH 7.4) [2]: 0.43
